A word on the EC50: it is the concentration that produces a half-maximal response.

The structures appear in SMILES notation.

The test system of this experiment is Cells expressing FALS mutant SOD1, cell death protection. The experiment can be described thus: cytoprotection in mutant SOD1 ALS cell model – familial ALS SOD1 mutant (AID 1605).
Compound `COC(=O)C1=C(C)NC(C)=C(C(=O)OC)C1c1ccccc1[N+](=O)[O-]` registered an EC50 of 28.9 µM.
Under `CN[C@@H]1[C@H](O)[C@H](NC)[C@H]2O[C@@]3(O)C(=O)C[C@@H](C)O[C@H]3OC2[C@H]1O` (some centres not stated) stands 0.0222 µM; under `CN1C(=O)CN=C(c2ccccc2)c2cc(Cl)ccc21`, 118 µM; under `O=C(O)CCC(=O)OC[C@@H](NC(=O)C(Cl)Cl)[C@H](O)c1ccc([N+](=O)[O-])cc1`, 1.1 µM.
For `CCCC(C)C1(CC)C(=O)N=C(S)NC1=O` (configuration not stated) the value was 29.9 µM.
For `C1CNCCN1` the value was 7130 µM; for `Nc1nc2ncc(CNc3ccc(C(=O)N[C@@H](CCC(=O)O)C(=O)O)cc3)nc2c(=O)[nH]1`, 785 µM; for `O=c1cc(-c2ccccc2)oc2cc(O)cc(O)c12`, 6.47 µM.
`CC(CCc1ccccc1)NC(C)C(O)c1ccc(O)cc1` (configuration not stated): the EC50 is 76.9 µM.
In the case of `CCC(=O)c1c(O)cc(O)cc1O`, the EC50 stood at 157 µM.
Compound `CCn1cc(C(=O)O)c(=O)c2cc3c(cc21)OCO3` had an EC50 of 2.38 µM.
In turn, `NCC(CC(=O)O)c1ccc(Cl)cc1` (configuration not stated) had an EC50 of 0.38 µM.
Under `O=[N+]([O-])c1cc([As](=O)(O)O)ccc1O` stands 71.9 µM; under `CN(C)c1ccc(O)c2c1C[C@H]1C[C@H]3[C@H](N(C)C)C(=O)C(C(N)=O)=C(O)[C@@]3(O)C(=O)C1=C2O`, 14.4 µM; under `C[C@H]1C(=O)O[C@@H]2CCN3CC=C(COC(=O)[C@](C)(O)[C@]1(C)O)[C@H]23`, 239 µM.
In the case of `CCC1(c2ccccc2)C(=O)NCNC1=O`, the EC50 came out at 741 µM.
`Cc1ccc(C(=O)C(C)CN2CCCCC2)cc1` (configuration not stated) displayed an EC50 of 19.1 µM.
For `Cc1cc(C2CCCCC2)n(O)c(=O)c1` the value was 30.9 µM; for `NC[C@H]1O[C@H](O[C@H]2C(O[C@@H]3O[C@H](CO)[C@@H](O)[C@H]3O)[C@@H](O)[C@H](N)C[C@@H]2N)[C@H](N)[C@@H](O)[C@@H]1O` (some centres not stated), 5790 µM; for `CC(NC(=O)C(NC(=O)OCc1ccccc1)C(C)C)C(=O)NC(CC(=O)O)C(=O)OC(F)F` (configuration not stated), 916 µM.
For `CN1CC[C@]23c4c5ccc(O)c4O[C@H]2C(=O)CCC3[C@H]1C5` (some centres not stated) the value was 3410 µM; for `C[C@]12C=CC(=O)C=C1CCC1C2C(=O)C[C@@]2(C)C1CC[C@]2(O)C(=O)CO` (some centres not stated), 2610 µM.
For the compound `O=C1O[C@@H](CO)[C@H](O)[C@@H](O)[C@@H]1O`, the EC50 turned out to be 9.33 µM.
Consider `CCCC(=O)Nc1ccc(OCC(O)CNC(C)C)c(C(C)=O)c1` (configuration not stated), for which the EC50 worked out at 48.8 µM.
Consider `CC[C@@H](CO)NC(=O)[C@@H]1C=C2c3cccc4[nH]cc(c34)C[C@H]2N(C)C1`, for which the 50% effective concentration (EC50) was 2890 µM.
The compound `NC(=O)NC1NC(=O)NC1=O` (configuration not stated) displayed an EC50 of 0.0224 µM.
Take `CN(C)/N=N/c1nc[nH]c1C(N)=O`: the EC50 amounted to 82 µM.
Take `Oc1cc(O)c2c(c1)O[C@H](c1ccc(O)c(O)c1)[C@@H](O)C2`: the EC50 is 73.1 µM.
Compound `CC(N)Cc1ccc2c(c1)OCO2` (configuration not stated) registered an EC50 of 2120 µM.
Under `COC(=O)/C(=C1\OC(=O)C(c2ccccc2)C1=O)c1ccccc1` (configuration not stated) stands 3940 µM.
`COc1cc(C)c2c(=O)cc(-c3ccccc3)oc2c1` showed an EC50 of 45.8 µM.
`CC(C)CC1NC(=O)CNC1=O` (configuration not stated) showed an EC50 of 0.0222 µM.
Compound `NCCC(O)C(=O)N[C@@H]1C[C@H](N)[C@@H](O[C@H]2O[C@H](CN)[C@@H](O)[C@H](O)[C@H]2N)[C@H](OC2O[C@H](CO)[C@H](O)[C@H]2O)[C@H]1O` (some centres not stated) gave a 50% effective concentration (EC50) of 0.2 µM.
Under `CC/C(=C(/CC)c1ccc(O)cc1)c1ccc(O)cc1` stands 0.0327 µM.
For `CC[C@@H]1C(=O)OC[C@@H]1Cc1cncn1C` the value was 3060 µM; for `O=C(OCC(O)CO)c1ccccc1Nc1ccnc2cc(Cl)ccc12` (configuration not stated), 3200 µM.
Compound `COc1ccc2[nH]cc(CCNC(C)=O)c2c1` came in with an EC50 of 178 µM.

The values above are taken from PubChem BioAssay AID1605 (NINDS Approved Drug Screening Program, 2009).
